From PMC5658359, “A potent small-molecule inhibitor of the DCN1-UBC12 interaction that selectively blocks cullin 3 neddylation” (Nature Communications, 2017)
Values after ≈ are worked out from the molar mass of the structure shown. Values joined by “and” are separate entries in the source; they are usually repeats but may differ in a detail not shown here. Identical values can stand only once. Like-named read-outs stand apart in the source and are kept apart here. Blank lines part the entries; values can stand above or below the compound they belong to. Where a SMILES comes first, the peptide text is derived from it. [ ]: non-standard residue; d: D form. Ala(6-iPr-benzothiazol-2-yl) = CC(C)c1ccc2nc(C[C@H](N)C(=O)O)sc2c1; Ala(benzothiazol-2-yl) = N[C@@H](Cc1nc2ccccc2s1)C(=O)O; Phe(3-CF3) = N[C@@H](Cc1cccc(C(F)(F)F)c1)C(=O)O; Phe(3,5-F2) = N[C@@H](Cc1cc(F)cc(F)c1)C(=O)O; Phe(3-CN) = N#Cc1cccc(C[C@H](N)C(=O)O)c1; 2Nal = N[C@@H](Cc1ccc2ccccc2c1)C(=O)O; hPhe = N[C@@H](CCc1ccccc1)C(=O)O

Columns and labels:
DCN1 = DCN1 (Homo sapiens, UniProt Q96GG9); assay: Competitive fluorescence polarization (FP) binding assay with probe 46, DCN1; design: Human DCN1 (residues 58–259) were cloned into a pDEST17 plasmid containing an N-terminal His6 tag; made in house; host or cells: Rosetta2 cells (E. coli); conditions: for Ki: competitive FP, probe 46 5 nM, DCN1 50 nM; for times weaker (less potent) than 30 in binding to DCN1: comparator 30; for times less potent than 33 in binding to DCN1: comparator 33; for times less potent than 1 in binding to DCN1: comparator 1
Protocol: The FP competitive binding experiments were performed to determine the binding affinities of all synthesized DCN1 inhibitors. […] Serial dilutions of DCN1 or DCN2 protein were mixed with the probe (46) to a final volume of 200 μl in the assay buffer (100 mM phosphate buffer, pH = 6.5, with 0.02% Tween-20 and 2% DMSO). The final probe concentration was 5 nM in both DCN1 and DCN2 assays. Plates were incubated at room temperature for 30 min with gentle shaking for equilibrium.
The IC50 and Ki values of compounds were determined in competitive binding experiments. Mixtures of compounds in DMSO (4 μl) and of pre-incubated protein/probe complex solution (196 μl) in the assay buffer were added into assay plates that were incubated at room temperature for 30 min with gentle shaking. Final concentrations of DCN1 protein and fluorescent probe (46) were 50 and 5 nM, respectively. […] FP values were measured as described above. IC50 values were determined by nonlinear regression fitting of the competition curves using the dose response inhibition equation (four parameters, variable slopes) included in the Prism/GraphPad software. K i values were calculated using the methods described earlier.

[1] = thermodynamic from solid
Protocol: (§1) The equilibrium aqueous solubility of an individual compound at different pH values was determined with a small-scale shake-flask method in Eppendorf tubes. Compounds were added as powder in excess to Britton-Robinson buffer at pH 2.0 or phosphate buffer at pH 7.4 until heterogeneous suspensions were obtained. Suspensions containing excessive compound powder were sonicated in a water bath for 30 min followed by incubation at room temperature with shaking for 24 h to achieve thermodynamic equilibrium. […] Supernatants obtained were filtered using Millipore MultiScreen filter plates equipped with 0.45 µm membranes. Compound concentrations in the saturated solutions were measured by UV spectroscopy at the maximum absorption wavelengths of each compound that were pre-determined by a spectrum scan.

[2] = Equilibrium aqueous solubility, small-scale shake-flask method; conditions: for solubility / solubility at 24 h: thermodynamic from solid
Protocol: as §1

[3] = Britton-Robinson buffer, pH 2.02, aqueous buffer
[4] = phosphate buffer, pH 7.4, aqueous buffer

Chain of DCN1 (Q96GG9 58-259): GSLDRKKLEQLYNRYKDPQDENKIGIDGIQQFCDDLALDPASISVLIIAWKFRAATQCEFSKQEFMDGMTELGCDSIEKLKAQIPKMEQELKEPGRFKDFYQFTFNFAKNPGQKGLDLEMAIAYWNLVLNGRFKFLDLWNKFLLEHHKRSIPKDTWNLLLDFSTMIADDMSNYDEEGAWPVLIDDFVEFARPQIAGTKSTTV

Compound: CC[C@H](C)[C@H](NC(=O)[C@H](CCc1ccccc1)NC(C)=O)C(=O)N[C@@H](CCCCN)C(=O)N[C@@H](CC(C)C)C(N)=O [compound 12] (Ac-[hPhe]IKL-NH2)
- factor by which binding affinity to DCN1 is decreased (DCN1; homophenylalanine in place of Met1, compared with 9/11): 6

Compound: CC[C@H](C)[C@H](NC(=O)[C@H](Cc1cccc(C#N)c1)NC(C)=O)C(=O)N[C@@H](CCCCN)C(=O)N[C@@H](CC(C)C)C(N)=O [compound 16] (Ac-[Phe(3-CN)]IKL-NH2)
- Ki (DCN1): > 1000 µM

Compound: CC[C@H](C)[C@H](NC(=O)[C@H](Cc1cc(F)cc(F)c1)NC(C)=O)C(=O)N[C@@H](CCCCN)C(=O)N[C@@H](CC(C)C)C(N)=O [compound 20] (Ac-[Phe(3,5-F2)]IKL-NH2)
- Ki (DCN1): 82 ± 9.1 µM

Compound: CC[C@H](C)[C@H](NC(=O)[C@H](Cc1c[nH]c2ccccc12)NC(C)=O)C(=O)N[C@@H](CCCCN)C(=O)N[C@@H](CC(C)C)C(N)=O [compound 21] (Ac-WIKL-NH2)
- Ki (DCN1): 82 µM

Compound: CC[C@H](C)[C@H](NC(=O)[C@H](Cc1nc2ccccc2s1)NC(C)=O)C(=O)N[C@@H](CCCCN)C(=O)N[C@@H](CC(C)C)C(N)=O [compound 24] (Ac-[Ala(benzothiazol-2-yl)]IKL-NH2)
- solubility ([1]; pH 2.02, aqueous buffer): 1480 µM (≈ 912 µg/mL)
- solubility ([1]; pH 7.4, aqueous buffer): 251 µM (≈ 155 µg/mL)

Compound: CC[C@H](C)[C@H](NC(=O)[C@H](Cc1nc2cc(Cl)ccc2s1)NC(C)=O)C(=O)N[C@@H](CCCCN)C(=O)N[C@@H](CC(C)C)C(N)=O [compound 25]
- times less potent than 24 in binding to DCN1 (DCN1; comparator 24): 17 times

Compound: CC[C@H](C)[C@H](NC(=O)[C@H](Cc1nc2ccc(C(C)C)cc2s1)NC(C)=O)C(=O)N[C@@H](CCCCN)C(N)=O [compound 28]
- times less potent than 27 in binding to DCN1 (DCN1; comparator 27): 37 times
- Ki (DCN1): 0.174 ± 0.023 µM
- solubility ([2]; pH 2.02, aqueous buffer): > 20000 µM
- solubility ([2]; pH 7.4, aqueous buffer): 7470 µM (≈ 4090 µg/mL)

Compound: CC[C@H](C)[C@@H](CN)NC(=O)[C@H](Cc1nc2ccc(C(C)C)cc2s1)NC(C)=O [compound 30]
- Ki (DCN1): 0.066 µM and 0.0664 µM
- solubility at 24 h ([2]; Britton-Robinson buffer, pH 2, aqueous buffer): > 20000 µM
- solubility at 24 h [2, 3]: > 20000 µM
- solubility at 24 h [2, 4]: > 20000 µM

Compound: CC[C@H](C)[C@@H](CN)NC(=O)[C@H](Cc1nc2ccc(C(C)C)cc2s1)NC=O [compound 31]
- times weaker (less potent) than 30 in binding to DCN1 (DCN1): 34 times
- Ki (DCN1): 2.24 ± 0.369 µM

Compound: CC[C@H](C)[C@@H](CN)NC(=O)[C@@H](N)Cc1nc2ccc(C(C)C)cc2s1 [compound 32]
- times weaker (less potent) than 30 in binding to DCN1 (DCN1): > 1000 times
- Ki (DCN1): 67 ± 8.3 µM

Compound: CCC(=O)N[C@@H](Cc1nc2ccc(C(C)C)cc2s1)C(=O)N[C@H](CN)[C@@H](C)CC [compound 33]
- Ki (DCN1): 0.019 µM

Compound: CC[C@H](C)[C@@H](CN)NC(=O)[C@H](Cc1nc2ccc(C(C)C)cc2s1)NC(=O)C(C)C [compound 34]
- Ki (DCN1): 0.061 µM

Compound: CCCC(=O)N[C@@H](Cc1nc2ccc(C(C)C)cc2s1)C(=O)N[C@H](CN)[C@@H](C)CC [compound 35]
- Ki (DCN1): 0.27 ± 0.034 µM

Compound: CC[C@H](C)[C@@H](CN)NC(=O)[C@H](Cc1nc2ccc(C(C)C)cc2s1)NC(=O)NC [compound 36]
- Ki (DCN1): 0.149 ± 0.028 µM

Compound: CCC(=O)N[C@@H](Cc1nc2ccc(C(C)C)cc2s1)C(=O)N[C@@H](C)CN [compound 38]
- times less potent than 33 in binding to DCN1 (DCN1): > 400 times
- Ki (DCN1): 7.6 ± 0.38 µM

Compound: CCC(=O)N[C@@H](Cc1nc2ccc(C(C)C)cc2s1)C(=O)N[C@H](CN)Cc1ccccc1 [compound 39]
- Ki (DCN1): 0.079 µM

Compound: CCC(=O)N[C@@H](Cc1nc2ccc(C(C)C)cc2s1)C(=O)N[C@H](CN)C1CCCCC1 [compound 40]
- Ki (DCN1): 0.013 µM
- aqueous solubility (in words) [2]: good
- solubility at 24 h [2, 3]: 4750 µM (≈ 2110 µg/mL)
- solubility at 24 h [2, 4]: 1910 µM (≈ 847 µg/mL)

Compound: CCC(=O)N[C@@H](Cc1nc2ccc(C(C)C)cc2s1)C(=O)N[C@H](CN1CCOCC1)C1CCCCC1 [compound 42]
- Ki (DCN1): 0.044 µM

Compound: Ac-MIKLFSLKQQ-NH2 [compound 3]
- times less potent than 1 in binding to DCN1 (DCN1): 2–3 times

More lines, now with the values ahead:

- Ki (DCN1): 50 µM
Compound: CC[C@H](C)[C@H](NC(=O)[C@H](CCSC)NC(C)=O)C(=O)N[C@@H](CCCCN)C(=O)N[C@@H](CC(C)C)C(N)=O [compound 9] (Ac-MIKL-NH2)

- binding to DCN1 (in words) (DCN1; at concentrations up to 1,000 µM): no appreciable binding
- Ki (DCN1): > 1000 µM
Compound: CC[C@H](C)[C@H](NC(=O)[C@H](CCSC)NC(C)=O)C(=O)N[C@@H](CCCCN)C(N)=O [compound 10] (Ac-Met-Ile-Lys-NH2)

- Ki (DCN1): > 1000 µM
Compound: CC[C@H](C)[C@H](NC(=O)[C@H](Cc1cccc(C(F)(F)F)c1)NC(C)=O)C(=O)N[C@@H](CCCCN)C(=O)N[C@@H](CC(C)C)C(N)=O [compound 17] (Ac-[Phe(3-CF3)]IKL-NH2)

- times more potent than 11 in binding to DCN1 (DCN1; comparator 11): 11 times
Compound: CC[C@H](C)[C@H](NC(=O)[C@H](Cc1ccc2ccccc2c1)NC(C)=O)C(=O)N[C@@H](CCCCN)C(=O)N[C@@H](CC(C)C)C(N)=O [compound 23] (Ac-[2Nal]IKL-NH2)

- times more potent than 24 in binding to DCN1 (DCN1; comparator 24): 4 times
Compound: CC[C@H](C)[C@H](NC(=O)[C@H](Cc1nc2ccc(Cl)cc2s1)NC(C)=O)C(=O)N[C@@H](CCCCN)C(=O)N[C@@H](CC(C)C)C(N)=O [compound 26]

- times more potent than 9 in binding to DCN1 (DCN1; comparator tetrapeptide 9): > 10,000 times
- Ki (DCN1): 0.0047 ± 0.0014 µM
- aqueous solubility (in words) [2]: poor
- solubility ([2]; pH 2.02, aqueous buffer): 227 µM (≈ 150 µg/mL)
- solubility ([2]; pH 7.4, aqueous buffer): 31 µM (≈ 20.5 µg/mL)
Compound: CC[C@H](C)[C@H](NC(=O)[C@H](Cc1nc2ccc(C(C)C)cc2s1)NC(C)=O)C(=O)N[C@@H](CCCCN)C(=O)N[C@@H](CC(C)C)C(N)=O [compound 27] (Ac-[Ala(6-iPr-benzothiazol-2-yl)]IKL-NH2)

- Ki (DCN1): 0.292 µM
- solubility at 24 h [2, 3]: 1050 µM (≈ 440 µg/mL)
- solubility at 24 h [2, 4]: 1280 µM (≈ 535 µg/mL)
Compound: CC[C@H](C)[C@H](NC(=O)[C@H](Cc1nc2ccc(C(C)C)cc2s1)NC(C)=O)C(N)=O [compound 29]

- times less potent than 33 in binding to DCN1 (DCN1): > 1000 times
- Ki (DCN1): 32 ± 4.2 µM
Compound: CCC(=O)N[C@@H](Cc1nc2ccc(C(C)C)cc2s1)C(=O)NCCN [compound 37]

- Ki (DCN1): 0.017 µM
Compound: CCC(=O)N[C@@H](Cc1nc2ccc(C(C)C)cc2s1)C(=O)N[C@H](CN(C)C)C1CCCCC1 [compound 41]

- Ki (DCN1): 0.019 µM and 0.0185 µM
Compound: CCC(=O)N[C@@H](Cc1nc2ccc(C(C)C)cc2s1)C(=O)N[C@H](CNC(=O)CN1CCOCC1)C1CCCCC1 [compound 43]

- times less potent than 1 in binding to DCN1 (DCN1): 2–3 times
Compound: Ac-MIKLFSLK-NH2 [compound 5]

- times less potent than 1 in binding to DCN1 (DCN1): 2–3 times
Compound: Ac-MIKLFSLKQ-NH2 [compound 4]
